# Article PMC12090182, “Repurposing of the RIPK1-Selective Benzo[1,4]oxazepin-4-one Scaffold for the Development of a Type III LIMK1/2 Inhibitor” (ACS Chemical Biology, 2025)
# How the values were obtained:
# Assay in all cases: scanMAX KINOMEscan (Eurofins)
# Format in all cases: binding
# AAK1 = AAK1 (Homo sapiens, UniProt Q2M2I8); settings: 1000 nM, read-out: Percent Control
# Excerpt: (§1) Supplement cb5c00097_si_002.xlsx, sheet "Table S6 (Eurofins Selectivity)" | column: Percent Control
# AMPK-alpha1 = AMPK-alpha1 (Homo sapiens, UniProt Q13131); settings: 1000 nM, read-out: Percent Control
# Excerpt: as §1
# ASK2 = ASK2 (Homo sapiens, UniProt O95382); settings: 1000 nM, read-out: Percent Control
# Excerpt: as §1
# CDKL2 = CDKL2 (Homo sapiens, UniProt Q92772); settings: read-out: Percent Control
# Excerpt: as §1
# CHEK2 = CHEK2 (Homo sapiens, UniProt O96017); settings: read-out: Percent Control
# Excerpt: as §1
# CSF1R = CSF1R (Homo sapiens, UniProt P07333); settings: read-out: Percent Control
# Excerpt: as §1
# DAPK2 = DAPK2 (Homo sapiens, UniProt Q9UIK4); settings: 1000 nM, read-out: Percent Control
# Excerpt: as §1
# DAPK3 = DAPK3 (Homo sapiens, UniProt O43293); settings: 1000 nM, read-out: Percent Control
# Excerpt: as §1
# EPHA8 = EPHA8 (Homo sapiens, UniProt P29322); settings: 1000 nM, read-out: Percent Control
# Excerpt: as §1
# EPHB3 = EPHB3 (Homo sapiens, UniProt P54753); settings: read-out: Percent Control
# Excerpt: as §1
# IGF1R = IGF1R (Homo sapiens, UniProt P08069); settings: read-out: Percent Control
# Excerpt: as §1
# LYN = LYN (Homo sapiens, UniProt P07948); settings: 1000 nM, read-out: Percent Control
# Excerpt: as §1
# MAP3K3 = MAP3K3 (Homo sapiens, UniProt Q99759); settings: 1000 nM, read-out: Percent Control
# Excerpt: as §1
# MEK5 = MEK5 (Homo sapiens, UniProt Q13163); settings: 1000 nM, read-out: Percent Control
# Excerpt: as §1
# MELK = MELK (Homo sapiens, UniProt Q14680); settings: compound concentration 100 nM; Entrez MELK; read-out: Percent Control
# Excerpt: as §1
# MINK = MINK (Homo sapiens, UniProt Q8N4C8); settings: 1000 nM, read-out: Percent Control
# Excerpt: as §1
# MKNK2 = MKNK2 (Homo sapiens, UniProt Q9HBH9); settings: compound concentration 100 nM; Entrez MKNK2; read-out: Percent Control
# Excerpt: as §1
# MST4 = MST4 (Homo sapiens, UniProt Q9P289); settings: 1000 nM, read-out: Percent Control
# Excerpt: as §1
# PCTK2 = PCTK2 (Homo sapiens, UniProt Q00537); settings: 1000 nM, read-out: Percent Control
# Excerpt: as §1
# PDGFRB = PDGFRB (Homo sapiens, UniProt P09619); settings: 1000 nM, read-out: Percent Control
# Excerpt: as §1
# PIK3CA = PIK3CA (Homo sapiens, UniProt P42336); settings: 1000 nM, read-out: Percent Control
# Excerpt: as §1
# PIK4CB = PIK4CB (Homo sapiens, UniProt Q9UBF8); settings: 1000 nM, read-out: Percent Control
# Excerpt: as §1
# PIP5K1C = PIP5K1C (Homo sapiens, UniProt O60331); settings: compound concentration 100 nM; Entrez PIP5K1C; read-out: Percent Control
# Excerpt: as §1
# PKN1 = PKN1 (Homo sapiens, UniProt Q16512); settings: read-out: Percent Control
# Excerpt: as §1
# PKN2 = PKN2 (Homo sapiens, UniProt Q16513); settings: compound concentration 100 nM; Entrez PKN2; read-out: Percent Control
# Excerpt: as §1
# PRKX = PRKX (Homo sapiens, UniProt P51817); settings: 1000 nM, read-out: Percent Control
# Excerpt: as §1
# PRP4 = PRP4 (Homo sapiens, UniProt Q13523); settings: compound concentration 100 nM; Entrez PRPF4B; read-out: Percent Control
# Excerpt: as §1
# [1] = biological target: RPS6KA4(Kin.Dom.1-N-terminal) (Homo sapiens, UniProt O75676); settings: compound concentration 100 nM; Entrez RPS6KA4; read-out: Percent Control
# Excerpt: as §1
# [2] = biological target: RPS6KA4(Kin.Dom.2-C-terminal) (Homo sapiens, UniProt O75676); settings: compound concentration 100 nM; Entrez RPS6KA4; read-out: Percent Control
# Excerpt: as §1
# SGK3 = SGK3 (Homo sapiens, UniProt Q96BR1); settings: 1000 nM, read-out: Percent Control
# Excerpt: as §1
# STK35 = STK35 (Homo sapiens, UniProt Q8TDR2); settings: compound concentration 100 nM; Entrez STK35; read-out: Percent Control
# Excerpt: as §1
# TNK1 = TNK1 (Homo sapiens, UniProt Q13470); settings: 1000 nM, read-out: Percent Control
# Excerpt: as §1
# TSSK1B = TSSK1B (Homo sapiens, UniProt Q9BXA7); settings: 1000 nM, read-out: Percent Control
# Excerpt: as §1
# TTK = TTK (Homo sapiens, UniProt P33981); settings: 1000 nM, read-out: Percent Control
# Excerpt: as §1
# WNK1 = WNK1 (Homo sapiens, UniProt Q9H4A3); settings: compound concentration 100 nM; Entrez WNK1; read-out: Percent Control
# Excerpt: as §1
# WNK3 = WNK3 (Homo sapiens, UniProt Q9BYP7); settings: 1000 nM, read-out: Percent Control
# Excerpt: as §1
# IGF1R, sequence (P08069 31-1367): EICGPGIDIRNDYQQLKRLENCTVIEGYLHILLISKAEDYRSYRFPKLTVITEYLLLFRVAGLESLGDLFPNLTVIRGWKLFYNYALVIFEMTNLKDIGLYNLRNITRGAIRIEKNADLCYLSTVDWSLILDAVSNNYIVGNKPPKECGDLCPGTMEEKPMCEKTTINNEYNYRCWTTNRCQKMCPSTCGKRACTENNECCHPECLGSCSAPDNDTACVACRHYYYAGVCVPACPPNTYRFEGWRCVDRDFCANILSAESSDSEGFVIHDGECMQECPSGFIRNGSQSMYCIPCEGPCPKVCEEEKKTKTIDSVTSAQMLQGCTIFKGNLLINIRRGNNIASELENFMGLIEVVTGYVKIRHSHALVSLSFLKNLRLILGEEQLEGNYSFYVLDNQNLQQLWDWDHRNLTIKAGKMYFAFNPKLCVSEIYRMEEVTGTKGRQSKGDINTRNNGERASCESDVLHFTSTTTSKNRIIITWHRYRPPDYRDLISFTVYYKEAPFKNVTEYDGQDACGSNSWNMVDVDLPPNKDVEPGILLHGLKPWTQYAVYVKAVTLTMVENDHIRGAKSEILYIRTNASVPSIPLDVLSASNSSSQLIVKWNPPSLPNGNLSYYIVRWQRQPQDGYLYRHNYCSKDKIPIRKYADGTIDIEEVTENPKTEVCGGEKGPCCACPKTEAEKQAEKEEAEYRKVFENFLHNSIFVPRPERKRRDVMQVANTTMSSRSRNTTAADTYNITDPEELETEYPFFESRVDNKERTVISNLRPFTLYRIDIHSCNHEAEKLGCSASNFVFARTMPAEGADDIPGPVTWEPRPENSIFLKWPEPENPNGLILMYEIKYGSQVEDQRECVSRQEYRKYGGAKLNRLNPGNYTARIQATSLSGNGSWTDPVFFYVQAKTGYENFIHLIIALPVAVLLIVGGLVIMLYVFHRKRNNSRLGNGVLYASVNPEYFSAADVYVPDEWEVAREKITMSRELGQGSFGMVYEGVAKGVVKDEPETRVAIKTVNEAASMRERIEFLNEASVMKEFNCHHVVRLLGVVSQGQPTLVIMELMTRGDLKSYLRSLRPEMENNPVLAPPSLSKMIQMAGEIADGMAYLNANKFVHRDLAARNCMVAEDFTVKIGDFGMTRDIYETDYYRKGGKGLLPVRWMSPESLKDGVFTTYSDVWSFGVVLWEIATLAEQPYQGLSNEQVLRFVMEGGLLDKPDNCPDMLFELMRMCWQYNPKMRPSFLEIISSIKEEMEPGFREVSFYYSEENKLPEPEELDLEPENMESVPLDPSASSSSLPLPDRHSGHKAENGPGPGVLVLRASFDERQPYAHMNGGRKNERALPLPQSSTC
# CHEK2, sequence (O96017 whole entry): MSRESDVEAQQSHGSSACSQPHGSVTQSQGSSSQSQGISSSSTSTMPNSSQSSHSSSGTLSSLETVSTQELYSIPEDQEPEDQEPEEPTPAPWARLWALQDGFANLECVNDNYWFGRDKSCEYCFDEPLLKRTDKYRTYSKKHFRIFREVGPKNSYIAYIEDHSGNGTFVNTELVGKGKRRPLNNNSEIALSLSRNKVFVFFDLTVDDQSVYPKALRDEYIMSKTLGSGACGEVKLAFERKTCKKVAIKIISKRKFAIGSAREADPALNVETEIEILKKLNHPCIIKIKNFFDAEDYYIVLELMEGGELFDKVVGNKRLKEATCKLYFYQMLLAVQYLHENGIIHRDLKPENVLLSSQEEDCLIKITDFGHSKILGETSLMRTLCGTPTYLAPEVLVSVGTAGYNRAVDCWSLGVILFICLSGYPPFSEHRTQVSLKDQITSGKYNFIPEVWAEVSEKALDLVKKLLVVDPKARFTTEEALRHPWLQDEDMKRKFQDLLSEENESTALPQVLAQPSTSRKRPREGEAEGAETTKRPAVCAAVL
# EPHB3, sequence (P54753 34-998): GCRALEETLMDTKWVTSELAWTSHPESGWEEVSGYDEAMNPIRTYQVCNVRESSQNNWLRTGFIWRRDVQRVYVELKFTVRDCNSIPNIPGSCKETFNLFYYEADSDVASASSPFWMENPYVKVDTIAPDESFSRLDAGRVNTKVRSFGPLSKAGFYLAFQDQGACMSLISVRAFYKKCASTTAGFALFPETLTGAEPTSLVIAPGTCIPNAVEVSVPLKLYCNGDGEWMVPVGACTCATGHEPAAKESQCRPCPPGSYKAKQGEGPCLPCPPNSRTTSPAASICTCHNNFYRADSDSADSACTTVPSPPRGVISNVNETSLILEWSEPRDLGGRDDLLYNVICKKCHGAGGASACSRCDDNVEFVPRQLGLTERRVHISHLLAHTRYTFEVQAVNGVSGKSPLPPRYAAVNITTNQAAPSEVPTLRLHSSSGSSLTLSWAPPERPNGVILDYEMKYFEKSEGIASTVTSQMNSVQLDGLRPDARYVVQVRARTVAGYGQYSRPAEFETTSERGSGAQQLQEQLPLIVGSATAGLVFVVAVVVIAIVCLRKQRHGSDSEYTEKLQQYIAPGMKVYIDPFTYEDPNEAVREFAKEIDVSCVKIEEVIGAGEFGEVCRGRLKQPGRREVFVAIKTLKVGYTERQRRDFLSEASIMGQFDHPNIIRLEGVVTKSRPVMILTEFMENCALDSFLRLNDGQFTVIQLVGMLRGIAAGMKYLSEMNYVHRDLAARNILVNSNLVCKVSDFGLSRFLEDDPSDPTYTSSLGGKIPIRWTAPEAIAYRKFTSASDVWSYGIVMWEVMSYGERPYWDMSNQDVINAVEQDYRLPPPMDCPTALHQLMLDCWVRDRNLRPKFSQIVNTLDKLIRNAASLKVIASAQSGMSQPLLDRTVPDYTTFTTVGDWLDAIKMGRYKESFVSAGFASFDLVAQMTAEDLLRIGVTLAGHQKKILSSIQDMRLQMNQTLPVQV
# CSF1R, sequence (P07333 20-972): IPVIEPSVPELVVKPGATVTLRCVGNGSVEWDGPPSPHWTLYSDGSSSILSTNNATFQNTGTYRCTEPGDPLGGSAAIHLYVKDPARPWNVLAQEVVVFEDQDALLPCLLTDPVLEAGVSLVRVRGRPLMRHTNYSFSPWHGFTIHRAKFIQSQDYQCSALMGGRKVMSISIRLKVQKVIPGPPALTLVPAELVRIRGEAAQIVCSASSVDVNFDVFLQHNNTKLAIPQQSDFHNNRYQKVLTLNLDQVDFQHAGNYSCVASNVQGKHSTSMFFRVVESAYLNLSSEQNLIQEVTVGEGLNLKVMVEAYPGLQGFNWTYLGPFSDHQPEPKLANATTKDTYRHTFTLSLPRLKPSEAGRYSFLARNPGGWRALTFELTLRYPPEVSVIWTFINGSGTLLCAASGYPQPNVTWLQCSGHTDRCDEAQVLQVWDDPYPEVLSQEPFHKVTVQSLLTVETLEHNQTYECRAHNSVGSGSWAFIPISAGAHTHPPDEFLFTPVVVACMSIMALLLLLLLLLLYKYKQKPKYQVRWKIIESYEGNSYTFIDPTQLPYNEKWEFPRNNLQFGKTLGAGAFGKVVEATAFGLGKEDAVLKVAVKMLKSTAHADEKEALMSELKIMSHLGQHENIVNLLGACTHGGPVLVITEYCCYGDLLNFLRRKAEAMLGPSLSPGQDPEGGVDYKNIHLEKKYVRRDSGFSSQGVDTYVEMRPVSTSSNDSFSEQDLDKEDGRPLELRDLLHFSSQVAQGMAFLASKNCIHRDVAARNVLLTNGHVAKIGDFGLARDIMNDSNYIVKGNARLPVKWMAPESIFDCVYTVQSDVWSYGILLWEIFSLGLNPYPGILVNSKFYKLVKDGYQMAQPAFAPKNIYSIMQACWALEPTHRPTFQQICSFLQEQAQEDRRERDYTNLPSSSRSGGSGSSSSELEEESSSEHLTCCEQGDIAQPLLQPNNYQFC
# CDKL2, sequence (Q92772 whole entry): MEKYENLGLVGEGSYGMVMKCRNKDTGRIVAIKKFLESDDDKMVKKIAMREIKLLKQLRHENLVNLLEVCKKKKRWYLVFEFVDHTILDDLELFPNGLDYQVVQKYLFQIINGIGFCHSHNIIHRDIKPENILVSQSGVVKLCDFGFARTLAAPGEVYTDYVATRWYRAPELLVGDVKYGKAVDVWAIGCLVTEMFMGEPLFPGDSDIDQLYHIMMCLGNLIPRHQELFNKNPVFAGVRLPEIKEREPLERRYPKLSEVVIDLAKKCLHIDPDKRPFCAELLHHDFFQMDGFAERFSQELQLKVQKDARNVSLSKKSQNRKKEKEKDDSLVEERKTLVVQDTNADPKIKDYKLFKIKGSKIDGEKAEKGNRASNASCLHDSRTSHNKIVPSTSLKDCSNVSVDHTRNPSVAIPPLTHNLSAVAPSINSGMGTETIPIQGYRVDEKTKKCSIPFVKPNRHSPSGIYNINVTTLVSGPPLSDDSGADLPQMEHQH
# PIP5K1C, sequence (O60331 whole entry): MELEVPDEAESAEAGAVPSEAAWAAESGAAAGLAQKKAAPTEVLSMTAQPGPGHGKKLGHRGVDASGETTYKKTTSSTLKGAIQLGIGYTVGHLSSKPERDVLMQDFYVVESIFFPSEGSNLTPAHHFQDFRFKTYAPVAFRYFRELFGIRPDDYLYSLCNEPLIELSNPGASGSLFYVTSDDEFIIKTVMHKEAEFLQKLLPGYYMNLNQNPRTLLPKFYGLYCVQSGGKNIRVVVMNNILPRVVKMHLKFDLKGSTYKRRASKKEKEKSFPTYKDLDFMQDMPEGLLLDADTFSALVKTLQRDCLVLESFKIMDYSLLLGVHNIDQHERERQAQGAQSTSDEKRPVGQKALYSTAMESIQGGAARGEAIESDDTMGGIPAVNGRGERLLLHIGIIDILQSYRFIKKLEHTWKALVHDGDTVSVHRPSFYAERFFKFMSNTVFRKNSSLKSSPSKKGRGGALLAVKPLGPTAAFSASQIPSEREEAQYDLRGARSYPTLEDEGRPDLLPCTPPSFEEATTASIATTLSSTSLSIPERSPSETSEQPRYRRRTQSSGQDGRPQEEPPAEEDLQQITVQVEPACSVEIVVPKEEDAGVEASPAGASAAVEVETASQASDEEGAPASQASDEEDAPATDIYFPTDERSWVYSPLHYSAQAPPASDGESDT
compound,measurement,setting,value
"CN1C(=O)[C@@H](N2CCc3c(nn(Cc4ccccc4)c3C(N)=O)C2=O)COc2cc(Cl)ccc21 [Compound 10, (S)-2-benzyl-6-(8-chloro-5-methyl-4-oxo-2,3,4,5-tetrahydrobenzo[b][1,4]oxazepin-3-yl)-7-oxo-4,5,6,7-tetrahydro-2H-pyrazolo[3,4-c]pyridine-3-carboxamide]",remaining binding at 1 µM,AAK1,83%
same,remaining binding at 1 µM,AMPK-alpha1,87%
same,remaining binding at 1 µM,ASK2,90%
same,remaining binding at 1 µM,CDKL2; 1000 nM,100%
same,remaining binding at 0.1 µM,"CDKL2; compound concentration 100 nM, Entrez CDKL2",100%
same,remaining binding at 1 µM,CHEK2; 1000 nM,100%
same,remaining binding at 0.1 µM,"CHEK2; compound concentration 100 nM, Entrez CHEK2",100%
same,remaining binding at 1 µM,CSF1R; 1000 nM,100%
same,remaining binding at 0.1 µM,"CSF1R; compound concentration 100 nM, Entrez CSF1R",83%
same,remaining binding at 1 µM,DAPK2,86%
same,remaining binding at 1 µM,DAPK3,87%
same,remaining binding at 1 µM,EPHA8,97%
same,remaining binding at 1 µM,EPHB3; 1000 nM,100%
same,remaining binding at 0.1 µM,"EPHB3; compound concentration 100 nM, Entrez EPHB3",71%
same,remaining binding at 1 µM,IGF1R; 1000 nM,100%
same,remaining binding at 0.1 µM,"IGF1R; compound concentration 100 nM, Entrez IGF1R",88%
same,remaining binding at 1 µM,LYN,77%
same,remaining binding at 1 µM,MAP3K3,94%
same,remaining binding at 1 µM,MEK5,82%
same,remaining binding at 0.1 µM,MELK,93%
same,remaining binding at 1 µM,MINK,95%
same,remaining binding at 0.1 µM,MKNK2,94%
same,remaining binding at 1 µM,MST4,92%
same,remaining binding at 1 µM,PCTK2,90%
same,remaining binding at 1 µM,PDGFRB,87%
same,remaining binding at 1 µM,PIK3CA,92%
same,remaining binding at 1 µM,PIK4CB,75%
same,remaining binding at 0.1 µM,PIP5K1C,100%
same,remaining binding at 1 µM,PKN1; 1000 nM,98%
same,remaining binding at 0.1 µM,"PKN1; compound concentration 100 nM, Entrez PKN1",86%
same,remaining binding at 0.1 µM,PKN2,90%
same,remaining binding at 1 µM,PRKX,78%
same,remaining binding at 0.1 µM,PRP4,67%
same,remaining binding at 0.1 µM,[1],81%
same,remaining binding at 0.1 µM,[2],100%
same,remaining binding at 1 µM,SGK3,90%
same,remaining binding at 0.1 µM,STK35,87%
same,remaining binding at 1 µM,TNK1,77%
same,remaining binding at 1 µM,TSSK1B,82%
same,remaining binding at 1 µM,TTK,93%
same,remaining binding at 0.1 µM,WNK1,92%
same,remaining binding at 1 µM,WNK3,69%
